Results published in patent US20100249231A1, “HSP90 Inhibitors of Protein-Protein Interaction HSP90 Chaperone Complexes and Therapeutic Uses Thereof” (THE OHIO STATE UNIVERSITY RESEARCH FOUNDATION, priority 2007, published 2010).
Peptide text beside a SMILES is read from it. * marks the point of attachment. Cbz = O=C(OCc1ccccc1)*

Key:
[1] = tested on: Akt; experiment: Western blot of Hsp90 client protein Akt in Panc-1 cells; assay type: cell-based, human; details: for level of Akt protein: 10 μM proteasome inhibitor, 24 h
Experimental: (§1) The levels of Akt and Cdk4, two well-known Hsp90 clients, were measured. Celastrol decreased the protein levels of Akt and Cdk4 in a concentration- and time-dependent manner.
(§2) Western Blot. The general procedure for the Western blot analysis was briefly described as follows. After drug treatment, cells were washed twice with ice-cold phosphate-buffered saline (PBS), scraped into lysis buffer (20 mM Tris, pH 7.5, 1% Nonidet P-40, 150 mM NaCl, 5 mM EDTA, 1 mM Na3VO4) supplemented with a protease inhibitor mixture (Sigma, added at a 1:100 dilution), and incubated on ice for 20 min. The lysate was then centrifuged at 14,000×g for 10 min. Equal amounts of total protein were subjected to SDS-PAGE and transferred onto nitrocellulose membranes and probed with appropriate antibodies.

[2] = tested on: Cdk4; experiment: Western blot of Hsp90 client protein Cdk4 in Panc-1 cells; assay type: cell-based, human; details: for level of Cdk4 protein: 10 μM proteasome inhibitor, 24 h
Experimental: as §1, §2

[3] = tested on: RIP1-Tag2 transgenic pancreatic cancer mouse model; experiment: RIP1-Tag2 transgenic pancreatic cancer mouse model; assay type: in vivo, mice
Source text: To further evaluate the anticancer efficacy of celastrol against pancreatic cancer, the inventors utilized celastrol to inhibit tumor growth in a RIP1-Tag2 transgenic pancreatic cancer mouse model. In this mouse model, hyperplastic islets begin to appear by 3-4 weeks of age, and solid tumors emerge in pancreas at about 8-9 weeks. The cancer will metastasized into other sites such as mesenterium in the peritoneal cavity from 10-12 weeks.
RIP1-Tag2 Transgenic Mouse Model. RIP1-Tag2 transgenic mice used contained the insulin promoter-driven SV40 T-antigen and produced spontaneous multifold and multistage pancreatic islet tumors. RIP1-Tag2 positive mice were identified by PCR analysis of genomic DNA from tail biopsy. […] After 4 weeks of injection, mice of each group were sacrificed by CO2 and tumors were isolated and saved. The remaining mice were kept to calculate the survival rate.

[4] = tested on: Hsp90; experiment: Western blot of Hsp90 protein levels; assay type: cell-based, human
Experimental: as §2

[5] = tested on: Panc-1 cells; experiment: MTS assay; details: read-out: IC50 (cytotoxicity, MTS), 24 h
Experimental: MTS Assay. The human Panc-1 cells were seeded in 96-well plates at a density of 3000-5000 cells per well. […] Number of viable cells was assessed by MTS assay after 24 h. The IC50 values for cytotoxicity were calculated with WinNonlin software (Pharsight, Mountain View, Calif.).

[6] = tested on: Panc-1 xenograft tumor; experiment: Panc-1 xenograft mouse model; assay type: in vivo, mice; details: 3 mg/kg i.p.; for inhibition of tumor growth: after the last injection
Experimental: After the last injection, celastrol inhibited 80% of tumor growth (p<0.001) (FIG. 6A).
Xenograft Mouse Model. 4 to 6-week old nu/nu athymic female mice were obtained from Charles River Laboratories (Charles River, Wilmington, Mass.). The human Panc-1 cells (5-10×10^6) were mixed with reconstituted basement membrane (Collaborative Research, Bedford, Mass.) and implanted to the right and left flanks of the mice. Tumor volumes were calculated with the formula: width^2×length/2. When tumors reached 100 mm^3, animals were randomized into different groups for treatment (n=6/group).
Then, the dosing schedule was changed to one injection per three days. Tumor sizes and body weights were measured twice a week.

[7] = 3 mg/kg i.p. once every 3 days for four weeks, at 12th week

| Compound | level of Akt protein [1] | level of Cdk4 protein [2] | survival increase over control ([3]; 3 mg/kg i.p.) [days] | decrease of tumors in pancreas compared to the control group [3, 7] [%] | IC50 [5] [µM] | further results |
| --- | --- | --- | --- | --- | --- | --- |
| CC(=O)N[C@@H](CSC(=O)[C@]1([C@@H](O)C(C)C)NC(=O)[C@H](C)[C@@H]1O)C(=O)O [lactacystin] | did not change the levels | did not change the levels |  |  |  |  |
| CC(C)C[C@@H](C=O)NC(=O)[C@H](CC(C)C)NC(=O)[C@H](CC(C)C)NC(=O)OCc1ccccc1 [MG132] (Cbz-Leu-Leu-Leu-aldehyde) | did not change the levels | did not change the levels |  |  |  |  |
| CC1=C(O)C(=O)C=C2C1=CC=C1[C@@]2(C)CC[C@@]2(C)[C@@H]3C[C@](C)(C(=O)O)CC[C@]3(C)CC[C@]12C [celastrol, (9b,13a,14b,20a)-3-Hydroxy-9,13-dimethyl-2-oxo-24,25,26-trinoroleana-1(10),3,5,7-tertraen-29-oic acid] |  |  | 12 | 30 | 3 | median survival time ([3]; 3 mg/kg i.p.): 96 days; weight loss ([3]; 3 mg/kg i.p., RIP1-Tag2 mice): about 10%; effect on Hsp90 protein levels [4]: no effect; inhibition of tumor growth [6]: 80%; inhibition of tumor growth ([6]; listed as Celastrol): more than 80%; weight loss in mice ([6]; xenograft mice): 5%; decrease of Akt protein level ([1]; 5 μM, 24-h treatment): 80%; decrease of Cdk4 protein level ([2]; 5 μM, 24-h treatment): 70% |
| COC1=C2C[C@@H](C)C[C@H](OC)[C@H](O)[C@@H](C)/C=C(\C)[C@H](OC(N)=O)[C@@H](OC)/C=C\C=C(/C)C(=O)NC(=CC1=O)C2=O [geldanamycin, reference compound] |  |  | 6 | 13 | 8 | decrease of metastatic tumors in mesenterium compared to the control group [3, 7]: 50% |
